# Measured values as given in ChEMBL document CHEMBL1141819, “Antimycobacterial triterpenes from Melia volkensii” (1999).
# Tested on: Mycobacterium tuberculosis
# Test: Antimycobacterial activity against Mycobacterium tuberculosis H37Rv ATCC 27294 by radiorespirometric bioassay
# Assay type: functional
row,Compound,MIC [µg/mL]
1,CC(C)=CCC[C@H]1C(=O)O[C@H]2C[C@]3(C)C4=CC[C@H]5C(C)(C)C(=O)CC[C@]5(C)[C@H]4C[C@@H](O)[C@@]3(C)[C@@H]21,16
2,CC(C)=CCC[C@H]1C(=O)O[C@H]2C[C@]3(C)C4=C[C@@H](O)[C@H]5C(C)(C)C(=O)CC[C@]5(C)[C@H]4CC[C@@]3(C)[C@@H]21,4
3,CC(=O)[C@H](CCC=C(C)C)[C@@H]1[C@@H](O)C[C@]2(C)C3=CC[C@H]4C(C)(C)C(=O)CC[C@]4(C)[C@H]3CC[C@@]12C [KULONATE],16
